Each compound was assayed against recombinant EZH2-641F complex (EZH2 Y641F/EED/SUZ12/RbAp48/AEBP2) (Homo sapiens (Human), UniProt Q15910, Y641F) (assay: EZH2 Histone Methyl Transferase Assay (scintillation proximity assay)). Settings: 350 nM histone peptide substrate, 500 nM 3H-SAM, 3 hours room temperature.
Assay type: biochemical
In short: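 Radiometric SPA with EZH2 Y641F/EED/SUZ12/RbAp48/AEBP2 complex (5 nM pure or 15 nM in-house), 350 nM biotinylated K(Me2) histone peptide and 500 nM [3H]-SAM in Tris pH 9.0, 3 h at room temperature. Compounds were tested at eleven concentrations; EC50 came from non-linear regression.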

Sequence of recombinant EZH2-641F complex (EZH2 Y641F/EED/SUZ12/RbAp48/AEBP2) (Q15910 whole entry Y641F): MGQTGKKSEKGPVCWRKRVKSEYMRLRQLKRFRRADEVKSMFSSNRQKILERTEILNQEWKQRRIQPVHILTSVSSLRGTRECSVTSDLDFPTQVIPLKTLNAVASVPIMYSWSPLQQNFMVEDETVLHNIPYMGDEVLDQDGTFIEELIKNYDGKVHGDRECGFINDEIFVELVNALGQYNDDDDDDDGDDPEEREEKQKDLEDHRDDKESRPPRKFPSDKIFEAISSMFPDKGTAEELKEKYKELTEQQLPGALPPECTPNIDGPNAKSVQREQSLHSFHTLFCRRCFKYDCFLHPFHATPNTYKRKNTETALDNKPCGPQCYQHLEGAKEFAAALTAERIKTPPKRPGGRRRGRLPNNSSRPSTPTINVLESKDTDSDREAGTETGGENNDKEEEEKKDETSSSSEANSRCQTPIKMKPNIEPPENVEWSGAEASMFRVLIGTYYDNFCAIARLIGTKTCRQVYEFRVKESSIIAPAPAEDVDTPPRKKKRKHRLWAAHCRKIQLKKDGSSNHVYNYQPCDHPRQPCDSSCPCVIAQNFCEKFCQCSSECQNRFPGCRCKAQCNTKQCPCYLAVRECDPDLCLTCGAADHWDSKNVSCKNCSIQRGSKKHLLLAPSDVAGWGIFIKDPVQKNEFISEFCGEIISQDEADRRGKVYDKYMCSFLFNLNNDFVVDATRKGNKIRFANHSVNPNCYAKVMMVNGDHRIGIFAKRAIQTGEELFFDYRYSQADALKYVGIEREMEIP
Sequence of recombinant EZH2-641F complex (EZH2 Y641F/EED/SUZ12/RbAp48/AEBP2) (O75530 whole entry partner): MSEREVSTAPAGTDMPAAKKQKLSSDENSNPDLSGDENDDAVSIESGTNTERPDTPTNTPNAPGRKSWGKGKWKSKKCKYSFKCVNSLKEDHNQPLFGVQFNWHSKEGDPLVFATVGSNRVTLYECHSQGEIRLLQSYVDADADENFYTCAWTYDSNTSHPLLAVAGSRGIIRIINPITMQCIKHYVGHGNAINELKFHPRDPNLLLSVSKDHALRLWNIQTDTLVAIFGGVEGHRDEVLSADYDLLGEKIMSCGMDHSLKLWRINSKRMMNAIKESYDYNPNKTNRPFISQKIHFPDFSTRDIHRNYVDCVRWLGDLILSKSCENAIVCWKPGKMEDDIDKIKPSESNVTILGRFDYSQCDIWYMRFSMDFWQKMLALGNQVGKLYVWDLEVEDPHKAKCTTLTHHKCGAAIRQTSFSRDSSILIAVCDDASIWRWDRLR
Sequence of recombinant EZH2-641F complex (EZH2 Y641F/EED/SUZ12/RbAp48/AEBP2) (Q15022 whole entry partner): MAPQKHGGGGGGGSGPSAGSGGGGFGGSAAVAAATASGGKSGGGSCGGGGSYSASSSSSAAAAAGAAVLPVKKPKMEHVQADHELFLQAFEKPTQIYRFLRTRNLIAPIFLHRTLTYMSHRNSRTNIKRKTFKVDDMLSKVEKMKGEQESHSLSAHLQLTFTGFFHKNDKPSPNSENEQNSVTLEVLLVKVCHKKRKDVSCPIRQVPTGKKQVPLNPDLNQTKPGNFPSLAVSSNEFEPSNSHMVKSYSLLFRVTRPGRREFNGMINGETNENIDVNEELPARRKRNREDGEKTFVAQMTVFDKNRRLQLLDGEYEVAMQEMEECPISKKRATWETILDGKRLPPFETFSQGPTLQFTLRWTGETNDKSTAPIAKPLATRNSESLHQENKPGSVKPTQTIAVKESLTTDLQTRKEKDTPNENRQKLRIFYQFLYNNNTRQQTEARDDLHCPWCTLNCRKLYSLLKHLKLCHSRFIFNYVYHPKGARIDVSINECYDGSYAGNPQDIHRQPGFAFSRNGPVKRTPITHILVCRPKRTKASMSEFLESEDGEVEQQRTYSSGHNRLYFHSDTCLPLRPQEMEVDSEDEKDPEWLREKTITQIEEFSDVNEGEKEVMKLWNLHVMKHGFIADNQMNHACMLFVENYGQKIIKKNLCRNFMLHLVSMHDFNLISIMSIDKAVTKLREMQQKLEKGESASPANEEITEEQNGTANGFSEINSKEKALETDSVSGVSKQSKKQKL
Sequence of recombinant EZH2-641F complex (EZH2 Y641F/EED/SUZ12/RbAp48/AEBP2) (Q09028 whole entry partner): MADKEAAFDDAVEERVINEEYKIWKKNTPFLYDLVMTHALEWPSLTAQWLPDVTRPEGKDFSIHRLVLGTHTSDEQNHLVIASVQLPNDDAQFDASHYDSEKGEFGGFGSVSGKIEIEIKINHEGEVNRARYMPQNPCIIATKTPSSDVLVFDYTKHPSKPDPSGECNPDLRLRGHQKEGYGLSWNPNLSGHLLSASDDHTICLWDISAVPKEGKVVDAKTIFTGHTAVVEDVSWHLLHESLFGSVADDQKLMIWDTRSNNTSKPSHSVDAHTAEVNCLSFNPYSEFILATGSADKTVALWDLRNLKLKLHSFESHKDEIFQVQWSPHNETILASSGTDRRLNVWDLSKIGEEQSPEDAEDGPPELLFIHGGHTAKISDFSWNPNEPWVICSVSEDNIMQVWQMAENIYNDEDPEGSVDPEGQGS
Sequence of recombinant EZH2-641F complex (EZH2 Y641F/EED/SUZ12/RbAp48/AEBP2) (Q6ZN18 whole entry partner): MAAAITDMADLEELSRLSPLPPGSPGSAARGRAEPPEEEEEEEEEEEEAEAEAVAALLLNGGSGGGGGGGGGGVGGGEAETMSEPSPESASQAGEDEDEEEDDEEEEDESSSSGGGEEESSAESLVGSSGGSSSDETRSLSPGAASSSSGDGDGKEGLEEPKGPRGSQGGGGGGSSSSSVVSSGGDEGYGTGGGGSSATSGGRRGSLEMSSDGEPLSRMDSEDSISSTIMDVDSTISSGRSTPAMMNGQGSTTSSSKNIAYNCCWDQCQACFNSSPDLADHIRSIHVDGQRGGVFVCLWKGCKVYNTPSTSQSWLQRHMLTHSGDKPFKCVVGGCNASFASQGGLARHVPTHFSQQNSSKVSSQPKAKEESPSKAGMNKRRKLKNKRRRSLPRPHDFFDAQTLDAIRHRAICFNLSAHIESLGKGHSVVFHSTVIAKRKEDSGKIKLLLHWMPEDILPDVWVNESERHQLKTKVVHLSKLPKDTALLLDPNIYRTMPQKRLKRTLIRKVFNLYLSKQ

| Compound | IC50 [nM] |
| --- | --- |
| Cc1cc(C)c(CNC(=O)c2cc(-c3ccc(CN4CCOCC4)cc3)c3c(c2)C(C)CO3)c(=O)[nH]1 (stereo not drawn) [Example 28, N-((4,6-Dimethyl-2-oxo-1,2-dihydropyridin-3-yl)methyl)-3-methyl-7-(4-(morpholinomethyl)phenyl)-2,3-dihydrobenzofuran-5-carboxamide] | > 1000 |
| COc1ccc(-c2cc(C(=O)NCc3c(C)cc(C)[nH]c3=O)cc3c2OC(C)(C)CC3)cn1 [Example 43, N-((4,6-Dimethyl-2-oxo-1,2-dihydropyridin-3-yl)methyl)-8-(6-methoxypyridin-3-yl)-2,2-dimethylchroman-6-carboxamide] | > 1000 |
| Cc1cc(C)c(CNC(=O)c2cc3c(c(-c4ccc(N5CCOCC5)nc4)c2)OCC3)c(=O)[nH]1 [Example 37, N-((4,6-Dimethyl-2-oxo-1,2-dihydropyridin-3-yl)methyl)-7-(6-morpholinopyridin-3-yl)-2,3-dihydrobenzofuran-5-carboxamide] | > 1000 |
| Cc1cc(C)c(CNC(=O)c2cc(-c3ccc(CN4CCCCC4)cc3)c3c(c2)C2(CCCC2)CO3)c(=O)[nH]1 [Example 78, N-((4,6-Dimethyl-2-oxo-1,2-dihydropyridin-3-yl)methyl)-7-(4-(piperidin-1-ylmethyl)phenyl)-2H-spiro[benzofuran-3,1′-cyclopentane]-5-carboxamide] | > 1000 |
| Cc1cc(C)c(CNC(=O)c2cc3c(c(-c4ccc(N5CCNCC5)nc4)c2)OC2(CCCC2)C3)c(=O)[nH]1 [Example 72, N-((4,6-Dimethyl-2-oxo-1,2-dihydropyridin-3-yl)methyl)-7-(6-(piperazin-1-yl)pyridin-3-yl)-3H-spiro[benzofuran-2,1′-cyclopentane]-5-carboxamide] | < 500 |
| Cc1cc(C)c(CNC(=O)c2ccc3c(c2)CCC(C)(C)O3)c(=O)[nH]1 [Example 41, N-((4,6-Dimethyl-2-oxo-1,2-dihydropyridin-3-yl)methyl)-2,2-dimethylchroman-6-carboxamide] | > 1000 |
| COc1ccc(-c2cc(C(=O)NCc3c(C)cc(C)[nH]c3=O)cc3c2OCC(C)CC3)cn1 (stereo not drawn) [Example 54, N-((4,6-dimethyl-2-oxo-1,2-dihydropyridin-3-yl)methyl)-9-(6-methoxypyridin-3-yl)-3-methyl-2,3,4,5-tetrahydrobenzo[b]oxepine-7-carboxamide] | > 1000 |
| Cc1cc(C)c(CNC(=O)c2cc(/C=C/c3ccccc3)c3c(c2)CC(C)(C)O3)c(=O)[nH]1 [Example 15, (E)-N-((4,6-Dimethyl-2-oxo-1,2-dihydropyridin-3-yl)methyl)-2,2-dimethyl-7-styryl-2,3-dihydrobenzofuran-5-carboxamide] | > 1000 |
| Cc1cc(C)c(CNC(=O)c2cc(Br)c3c(c2)CC(C)CCO3)c(=O)[nH]1 (stereo not drawn) [Example 45, 9-Bromo-N-((4,6-dimethyl-2-oxo-1,2-dihydropyridin-3-yl)methyl)-4-methyl-2,3,4,5-tetrahydrobenzo[b]oxepine-7-carboxamide] | > 1000 |
| Cc1cc(C)c(CNC(=O)c2cc3c(c(-c4ccc(C(=O)N5CCN(C)CC5)cc4)c2)OC(C)(C)C3)c(=O)[nH]1 [Example 16, N-((4,6-Dimethyl-2-oxo-1,2-dihydropyridin-3-yl)methyl)-2,2-dimethyl-7-(4-(4-methylpiperazine-1-carbonyl)phenyl)-2,3-dihydrobenzofuran-5-carboxamide] | > 1000 |
| Cc1cc(C)c(CNC(=O)c2cc(Br)c3c(c2)CCCC(C)O3)c(=O)[nH]1 (stereo not drawn) [Example 49, 9-Bromo-N-((4,6-dimethyl-2-oxo-1,2-dihydropyridin-3-yl)methyl)-2-methyl-2,3,4,5-tetrahydrobenzo[b]oxepine-7-carboxamide] | > 1000 |
| COc1ccc(-c2cc(C(=O)NCc3c(C)cc(C)[nH]c3=O)c(C)c3c2OC(C)(C)C3)cn1 [Example 25, N-((4,6-Dimethyl-2-oxo-1,2-dihydropyridin-3-yl)methyl)-7-(6-methoxypyridin-3-yl)-2,2,4-trimethyl-2,3-dihydrobenzofuran-5-carboxamide] | 500 to 1000 |

Source: patent US9822103B2, “Inhibitors of lysine methyl transferase” (priority 2013, dated 2017)
